Reference: ChEMBL document CHEMBL1159202, “A furanoid labdane diterpene from Potamogeton nodosus” (1998)

Experiments:
Assay type in all cases: functional
Enterococcus faecalis = test: Antimicrobial activity against sStreptococcus faecalis by disk diffusion method
Staphylococcus aureus = test: Antimicrobial activity against Staphylococcus aureus by disk diffusion method
Bacillus cereus = test: Antimicrobial activity against Bacillus cereus by disk diffusion method
Shigella boydii = test: Antimicrobial activity against Shigella boydii by disk diffusion method
Shigella dysenteriae = test: Antimicrobial activity against Shigella shigae by disk diffusion method
Bacillus subtilis = test: Antimicrobial activity against Bacillus subtilis by disk diffusion method
Shigella sonnei = test: Antimicrobial activity against Shigella sonnei by disk diffusion method

C=C1CC[C@H]2[C@@]3(C)CCC[C@]2(C(=O)OC3)[C@H]1CC(=O)c1ccoc1
inhibition zone (IZ) (Enterococcus faecalis): 12 mm
inhibition zone (IZ) (Staphylococcus aureus): 14 mm
inhibition zone (IZ) (Bacillus cereus): 13 mm
inhibition zone (IZ) (Shigella boydii): 8 mm
inhibition zone (IZ) (Shigella dysenteriae): 12 mm
inhibition zone (IZ) (Bacillus subtilis): 16 mm
inhibition zone (IZ) (Shigella sonnei): 10 mm

C[C@H]1c2cccc(O)c2C(=O)C2=C(O)[C@]3(O)C(=O)C(C(N)=O)=C(O)[C@@H](N(C)C)[C@@H]3[C@@H](O)[C@@H]21.O [DOXYCYCLINE]
inhibition zone (IZ) (Enterococcus faecalis): 35 mm
inhibition zone (IZ) (Staphylococcus aureus): 35 mm
inhibition zone (IZ) (Bacillus cereus): 31 mm
inhibition zone (IZ) (Shigella boydii): 38 mm
inhibition zone (IZ) (Shigella dysenteriae): 37 mm
inhibition zone (IZ) (Bacillus subtilis): 34 mm
inhibition zone (IZ) (Shigella sonnei): 30 mm
